From a melting point compilation (Tetko et al.; mined from patent text by program, amines drawn as free bases though some values may be those of a salt)

First: COc1ccc(C(=O)c2ccc3cc(C(=O)c4ccc(OC)cc4)ccc3c2)cc1
Second: COC(=O)C(Oc1ccc(Cl)cc1)c1ccc(Oc2cccc(C(F)(F)F)c2)cc1 (stereo not given)
The melting point of the first is higher: 251 °C for the first, 79 to 82 °C for the second.

First: Cc1ccc(Nc2nc(-c3ccccc3)c(C(=O)c3sc(Nc4ccc(C)cc4)nc3-c3ccccc3)s2)cc1
Second: CCn1c(-c2cc3ccccc3[nH]2)nc(-c2ccncc2)c1-c1ccc(Cl)cc1
The melting point of the first is higher: > 285 °C for the first, 279 to 280 °C for the second.

First: O=C(NC1CN(C(C(=O)O)c2ccccc2)C1=O)C(=NO)c1ccccc1 (stereo not given)
Second: CCOC(=O)CCNC(=O)C(=Cc1ccccc1)CSC(=O)c1ccccc1
The melting point of the first is higher: 145 to 149 °C for the first, < 50 °C for the second.

First: NCCNc1cnnc(N)n1
Second: CCn1c(N)c(C(N)=O)c(=O)c2cnc(Nc3ccc(NCC(=O)C4CC4)cc3)nc21
The melting point of the first is lower: 186 to 191 °C for the first, 248 °C for the second.

Compared with `COc1ccc2cc3c(c(-c4ccc(F)cc4)c2c1)C(=O)NC3=O`, `COc1ccc(C2=NNC(=O)CC2c2ccc(OC)c(F)c2)cc1` (stereo not given) is lower in melting point: 281 to 284 °C for the first, 171 to 173 °C for the second.

First: N=c1sc2cc(OC(F)(F)F)ccc2n1CCS(=O)c1ccccc1 (racemic)
Second: CN(Cc1ccc2[nH]cc(CCN3C(=O)c4ccccc4C3=O)c2c1)S(=O)(=O)C(F)(F)F
The melting point of the first is higher: 210 °C for the first, 131 to 133 °C for the second.

Compared with `CC(C)c1ccc(S(=O)(=O)Nc2ncc(C(F)(F)F)cc2I)cc1`, `Cc1ccc(-c2c(Cl)ncnc2NS(=O)(=O)c2ccc(C(C)(C)CO)cc2)cc1` is higher in melting point: 124 °C for the first, 227 to 228 °C for the second.

First: O=C(Nc1cccnc1)c1cccc(-c2cccc3oc(Cc4cccc(C(F)(F)F)c4)cc23)c1
Second: COc1cc(/C=C/CNc2cccc(-c3ccnc4c(C(=O)c5cccs5)cnn34)c2)ccc1O
The melting point of the first is lower: 127 to 128 °C for the first, 180 to 184 °C for the second.

Compared with `Cc1nc[nH]c1CSCCNC(=S)S`, `CCCc1nc(C=NNC(=S)SC)c(C)[nH]1` is higher in melting point: 127 to 129 °C for the first, 175 to 179 °C for the second.

First: Cc1cc(OC[C@@H]2CCC(=O)N2)cc(C)c1-c1cccc2c1OC[C@H]2Nc1ccc2c(c1)OC[C@H]2CC(=O)O
Second: Cc1ccc(C)c2c1Cc1c(O)cccc1C2=O
The melting point of the first is lower: 161 °C for the first, 172 to 178 °C for the second.

First: CCS(=O)(=O)c1ccc(-c2nc(-c3nc4cc(OC)cc(OC)c4c(=O)[nH]3)ccc2OCCO)cc1
Second: COc1cc(-c2cc(O)c(SCCc3ccccc3)c(=O)o2)ccc1OCc1ccccc1
The melting point of the first is higher: 282 to 284 °C for the first, 114 to 115 °C for the second.

First: Cc1cc(C2=CCN(CCCC(O)c3ccccc3)CC2)on1 (stereo not given)
Second: CCc1nc2c(OCc3ccccc3)cc(Br)cc2n1C
The melting point of the first is lower: 108 to 109 °C for the first, 111 to 115 °C for the second.

Compared with `COC1(c2csc(Sc3ccc(/C(C)=N/O)cc3)n2)CCOCC1`, `CC1NC(=Nc2ccccc2N2CCOCC2)NC1C` (stereo not given) is lower in melting point: 146 °C for the first, 142 to 143 °C for the second.

First: O[C@@H]1CN(C2CCCCC2)C[C@@H]1NCc1ccccc1 (relative stereo)
Second: N#CC1CCN(c2ccc3c(NC(=O)CC4CCCCC4)c(Cl)ccc3n2)CC1
The melting point of the first is lower: 108 to 110 °C for the first, 235 to 237 °C for the second.

First: O=C(O)c1ccc(NC(=O)C(F)(F)F)cc1
Second: Cc1nnsc1C(=O)Nc1ccc(-n2nc(C(F)(F)F)cc2C#N)cc1
The melting point of the first is higher: 277 to 278 °C for the first, 193 to 195 °C for the second.

First: CCc1c(C(=O)c2cc(C)cc(C)c2)n(CC=C(C)C)c(=O)[nH]c1=O
Second: CC(=O)Nc1cc(C(C)(C)C)nn1C(CCN1C(=O)c2ccccc2C1=O)=NOS(=O)(=O)c1ccc(C)cc1
The melting point of the first is higher: 255 to 260 °C for the first, 195 to 201 °C for the second.

Compared with `FC(F)(F)c1ccc2onc(Nc3ccncc3)c2c1`, `CN(CCCSc1ccncc1)C(=O)c1cccs1` is lower in melting point: > 280 °C for the first, 72 to 72.5 °C for the second.

First: CCOC(=O)CCc1cnn2c(N(C)c3ccccc3)ncnc12
Second: Cc1ncnn1C[Si](C)(C)c1ccc(-c2ccccc2)cc1
The melting point of the first is lower: 74 °C for the first, 95 to 98 °C for the second.

First: O=C(O)c1c(SCCO)c(SCCO)c(SCCO)c(SCCO)c1C(O)=NCCO
Second: CC(C)c1cc(C(=O)Nc2ccc(C(=O)O)c(O)c2)sc1C(C)C
The melting point of the first is higher: 152 to 157 °C for the first, 129 to 130 °C for the second.

First: COC(=O)c1ccc(NCCCCCCCCCCCCCCCCBr)cc1
Second: COC(=O)CCCCCNC(=O)C(CO)NS(=O)(=O)c1ccc(Cl)cc1 (racemic)
The melting point of the first is higher: 92 to 93 °C for the first, 83 to 86 °C for the second.

First: Cc1nc(-c2nccs2)c2nc(-c3ccccc3)cc-2[nH]1
Second: Cc1oc(-c2ccccc2)nc1COc1cc(COc2nn(C)cc2CC(=O)O)on1
The melting point of the first is higher: 248 to 250 °C for the first, 149 to 150 °C for the second.

First: CCOC(=O)NNc1ccc(N(C)CCO)nn1
Second: CCOC(=O)C(NC=O)C(=O)Nc1ccc(Br)cc1C (stereo not given)
The melting point of the first is lower: 131 to 133 °C for the first, 174 to 176 °C for the second.

First: O=C1CS(=O)c2ccccc2N1 (stereo not given)
Second: O=C1CC(=Cc2cccc3ccccc23)C(=O)O1
The melting point of the first is higher: 184 to 186 °C for the first, 162 to 164 °C for the second.

Compared with `CSc1ccc(NS(=O)(=O)c2cccc3c(N(C)C)cccc23)nn1`, `CCN(Cc1ccccc1)c1ccc(C2OC(=O)c3cc(N(C)C)ccc32)cc1` (stereo not given) is lower in melting point: 188 to 190 °C for the first, 123 to 125 °C for the second.

First: CC(Cc1ccc(F)cc1F)C(N)=O (stereo not given)
Second: CC(=O)Nc1ccc(F)c(F)c1F
The melting point of the first is higher: 90 to 91 °C for the first, 87 to 88 °C for the second.

Compared with `O=c1[nH]c2cc(OCC(O)CN3CCOCC3)ccc2c2oc3ccccc3c12` (stereo not given), `CCn1cc(C(=O)NCc2ccc(Cl)cc2)c(=O)c2cc(C#CCOC(=O)c3cccc(CN4CCOCC4)c3)sc21` is lower in melting point: 228 to 230 °C for the first, 147 to 150 °C for the second.

First: O=C(Nc1ccc(Cl)c(Cl)c1)NS(=O)(=O)c1ccc2c(c1)C(=O)CO2
Second: CSC1=NN=C(c2ccc([N+](=O)[O-])cc2)c2cc3c(cc2C1)OCO3
The melting point of the first is lower: 209 to 211 °C for the first, 280 to 281 °C for the second.

Compared with `ClCc1coc(-c2cccc(OCc3ccccc3)c2)n1`, `CC(C)(Cc1ccccc1)C(NC(=O)c1ccc(Cl)cc1)Nc1c(Nc2cccnc2Cl)c(=O)c1=O` (stereo not given) is higher in melting point: 49 to 50 °C for the first, 236 to 237 °C for the second.

First: CN=C(NC#N)S(C)=O (stereo not given)
Second: Cc1cccc(I)c1C(=O)NC(C)(C)CS(C)(=O)=O
The melting point of the first is lower: 116 °C for the first, 134 to 136 °C for the second.

First: O=C(NCCCNS(=O)(=O)c1ccc(Oc2ccccc2)cc1)P(=O)(O)O
Second: COc1ccc2c(c1)c(CC(=O)OCC(=O)NCCO[N+](=O)[O-])c(C)n2C(=O)c1ccc(Cl)cc1
The melting point of the first is higher: 165 to 168 °C for the first, 128 to 129 °C for the second.

First: CCCOC(=O)CCNCC(O)COc1ccccc1C#N (stereo not given)
Second: CN(C)C(=O)C(O)C1c2ccccc2CCc2ccccc21 (stereo not given)
The melting point of the first is lower: 89 °C for the first, 210 to 214 °C for the second.

First: CC[C@@H]1CN(c2c(F)c(N)c3c(=O)c(C(=O)O)cn(C4CC4)c3c2F)C[C@H]1NC(=O)OC (relative stereo)
Second: O=CNn1cc(C(=O)O)c(=O)c2cc3c(cc21)OCO3
The melting point of the first is lower: 231 to 232 °C for the first, 302 °C for the second.

First: CCOc1c(C)cnc(CSc2nc3cc4c(cc3[nH]2)OCO4)c1C
Second: COc1c(C)c(N2CCN(c3ccc(OC(F)F)cc3)CC2)c(C)c2c1OC(C)(C)C2
The melting point of the first is higher: 184 to 185 °C for the first, 151 to 152 °C for the second.

First: Cc1ccc(-c2cccnc2N2CCC(C(=O)O)CC2)cc1C(=O)NCC12CC3CC(CC(C3)C1)C2
Second: c1ccc(C(CCN2CC3CCC(CC3)C2)(c2ccccc2)c2nnn[nH]2)cc1
The melting point of the first is lower: 60 °C for the first, 284 to 286 °C for the second.

Compared with `O=[N+]([O-])c1cc(-c2nc3ccccc3s2)cc([N+](=O)[O-])c1`, `O=C(/C=C/c1c[nH]c2ccccc12)c1cccnc1` is higher in melting point: 73.5 to 84.5 °C for the first, 192 to 194 °C for the second.
